Measured values: patent US8834930B2, “Pulmonary delivery of a fluoroquinolone” (Novartis AG, priority 2008, dated 2014)

Key:
[1] = Powder dispersibility, laser diffraction with varied RODOS dispersing pressure; assay type: physicochemical; settings: dispersing pressure 0.2 bar
Method: As used herein, the relative dispersibility of spray-dried powders is determined with the Sympatec (laser diffraction) by varying the dispersing pressure of the RODOS dispersion unit, from about 0.2 bar to 4.0 bar. As used herein, the dispersibility index, δ (delta), is defined as the ratio of the x50 measured at a dispersing pressure of 0.2 bar to that at 4.0 bar.
The relative dispersibility of powder formulations can be studied with the laser diffraction technique by varying the dispersing pressure in the RODOS disperser. […] The ratio of the median particle sizes measured at low and high dispersing pressures is a measure of the dispersibility of the powder.

[2] = background; cited from earlier work
[3] = Surface properties (BET specific surface area, porosity, rugosity); assay type: physicochemical
From the text: As used herein, specific surface area (SSA) refers to the SSA calculated from gas adsorption data according to a theory developed by Brunauer, Emmett, and Teller (J Amer Chem Soc 1938, 60:309), generally referred to as the BET method.
As used herein, particle porosity refers to the total pore volume in %, calculated from nitrogen gas absorption data. In nitrogen adsorption, the pores are filled (and emptied) according to the Kelvin capillary condensation equation. As the partial pressure of nitrogen increases, condensation of the gas will begin in the smaller pores and progressively fill larger and larger pores until bulk condensation occurs. Using this technique, nitrogen is first condensed in the pores by setting the partial pressure of nitrogen to a value near saturation. Then, the nitrogen is gradually desorbed in a stepwise fashion by reducing its vapor pressure. The pore size distribution is calculated by analyzing the nitrogen desorption isotherm using the Kelvin equation to determine the amount of condensed nitrogen in the pores (assuming a cylindrical pore geometry), wherein the adsorptive loss at each step represents the core volume of pores emptied during that step. The calculation is automated, and follows the algorithm proposed by Barrett et al (Barrett E P, Joyner L G, Halenda P P: The determination of pore volume and area distributions in porous substances I. computations from nitrogen isotherms. J Amer Chem Soc 1951, 73:373-380). This approach holds for pore diameters as small as about 2 nm, i.e., down to the […] region.
Rugosity (Sv) is a measure of the surface roughness of an engineered powder. For the purposes of this invention, rugosity is calculated from the specific surface area obtained from BET measurements, the true density obtained by helium pycnometry, and the surface/volume ratio of the particle obtained by laser diffraction (Sympatec), viz:
Significant increases in specific surface area, porosity, and rugosity Sv are observed for the phospholipid-coated particles relative to micronized drug. […]

O=C(O)c1cn(C2CC2)c2cc(N3CCNCC3)c(F)cc2c1=O [ciprofloxacin betaine]
x50 [1]: 3.5 μm

O=C(O)c1cn(C2CC2)c2cc(N3CCNCC3)c(F)cc2c1=O [ciprofloxacin]
pK1 [2]: 6.0

O=C(O)c1cn(C2CC2)c2cc(N3CCNCC3)c(F)cc2c1=O [Lot BXA1GE7]
Rugosity Sv ([3]; API shape factor = 1.27): 1.1
Specific Surface Area ([3]; BET): 4.4 m^2/g
Sympatec Sv ([3]; laser diffraction): 4.91 m^2/cm^3
